Source: paper PMC9394284, “Discovery of Novel Dual Adenosine A2A and A1 Receptor Antagonists with 1H-Pyrazolo[3,4-d]pyrimidin-6-amine Core Scaffold as Anti-Parkinson’s Disease Agents” (Pharmaceuticals, 2022)

Experiments:
[1] = biological target: A2A adenosine receptor (Homo sapiens, UniProt P29274); assay: cyclic AMP HTRF functional assay, HEK-293 (A2A); assay type: cell-based; conditions: HEK-293 cells
Protocol: Next, the functional activity of 11o against A1 and A2A adenosine receptors was evaluated using c-AMP assay in CHO-K1 (A1) and HEK-293 (A2A) cells.
For functional studies, A1 and A2A receptor cyclic AMP HTRF (homogeneous time resolved fluorescence) assay was performed at EuroscreenFast (Charleroi, Belgium) using CHO-K1 (A1) and HEK293 (A2A) stable cell line with CPA (A1) and NECA (A2A) as reference agonist and DPCPX (A1) and ZM241385 (A2A) as reference antagonist compound.

[2] = maximum tolerated dose, single oral administration, rat; conditions: both sexes, in vivo, single oral administration, male and female Sprague Dawley rats
Protocol: (§1) Rat and dog MTD studies were performed at Frontage Laboratories Inc following testing facility’s SOPs. All procedures described were reviewed and approved by the Institutional Animal Care and Use Committee (IACUC) at Frontage Laboratories Inc.
(§2) For rat MTD study, male and female Sprague Dawley rats (Rattus norvegicus) of 8.1~9.6 weeks of age were purchased from Charles River Laboratories, USA and maintained at standard food and water ad libitum in temperature-controlled room with 12 h on-off light cycle before the experiment. Animals were acclimated to the testing facility for at least 6 to 16 days prior to initiation of dosing. Animals received a single dose of 11o in 0.5% methyl cellulose via oral gavage starting from 150 mg/kg dose level (this initial dose level was selected based on available data and the estimated toxicity using EPA’s toxicity estimation software tool (TEST) version 4.2.1) in 10 mL/kg dose volume. Subsequent doses occurred 3 or 4 days following the previous dose and were increased based on findings from the previous dosing(s). The procedure continued until four dosing events occurred. Animals were observed once in the morning and once in the afternoon throughout the study for clinical observations. Body weights were measured on the day prior to dose administration. […]

[3] = tested on: Sprague Dawley rats; assay: as above; conditions: in vivo, po
Protocol: as §1, §2

[4] = tested on: MPTP-lesioned mouse model; assay: MPTP-lesioned mouse model of Parkinson's disease; assay type: in vivo, C57BL/6J mice
From the text: In a subsequent study, we investigated the therapeutic efficacy of 11o in PD using an MPTP-lesioned mouse model. This MPTP-lesion mouse model is one of the most well-established PD models and causes an approximately 90% loss of striatal dopamine, as analyzed using HPLC 7 days after the administration of the last dose of MPTP [13].
Male C57BL/6J mice of 10 weeks of age were purchased from Charles River Laboratories (Charles River Laboratories, Freiburg, Germany) and maintained at QPS Austria. All procedures described were reviewed and approved by IACUC at QPS Austria. Animal studies conformed to the Austrial guidelines for the care and use of laboratory animals (Tierversuchsgesetz 2012-TVG 2012, BGB1. I Nr. 114/2012). […]
To test individual nest-building behavior, mice were housed individually in cages containing wood-chip bedding and one square of pressed cotton (‘nestlet’). […] The nestlet was introduced on the day before the evaluation of the nest status in about 2 to 3 h before the dark phase was initiated, and the nest-building behavior was evaluated on the following day of the experiment within 2~3 h after the light-phase start. […] Manipulation of the nestlet and the constitution of the built nest were assessed according to five-point scale as follows: 1. […]

Chain of A2A adenosine receptor (P29274 whole entry): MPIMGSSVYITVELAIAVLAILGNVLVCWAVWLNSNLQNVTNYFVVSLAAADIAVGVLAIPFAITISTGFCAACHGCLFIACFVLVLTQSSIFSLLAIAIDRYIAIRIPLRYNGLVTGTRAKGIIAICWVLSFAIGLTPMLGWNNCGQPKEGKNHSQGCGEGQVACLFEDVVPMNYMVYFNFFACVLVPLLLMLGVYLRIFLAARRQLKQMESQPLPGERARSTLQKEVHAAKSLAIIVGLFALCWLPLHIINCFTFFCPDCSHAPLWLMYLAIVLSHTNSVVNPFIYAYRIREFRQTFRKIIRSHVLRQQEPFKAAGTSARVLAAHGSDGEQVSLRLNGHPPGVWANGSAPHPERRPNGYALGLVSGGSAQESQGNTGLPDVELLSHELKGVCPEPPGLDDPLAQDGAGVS

For `Cc1cc(Cn2ncc3c(-c4cccc(C#N)c4F)nc(N)nc32)ccc1N` [11o, 3-(6-Amino-1-(4-amino-3-methylbenzyl)-1H-pyrazolo[3,4-d]pyrimidin-4-yl)-2-fluorobenzonitrile], the “functional activity at A2A receptor” value [1] was “full antagonism”, the IC50 ([1]; read-out: IC50, A2A functional antagonism (c-AMP)) was 136 nM and the MTD [2] was over 1000 mg/kg. The “body weight loss or mortality in rats” value [3] was “no body weight loss or mortality observed”, the nest-building activity ([4]; MPTP-lesioned mice, intranasal 1 and 10 mg/kg, difference not significant) was “partially restored the activity level to near sham level” and the “rescue of striatal dopamine depletion caused by MPTP” value ([4]; once daily for 7 days, doses up to 10 mg/kg, data not shown) was “unable to rescue dopamine depletion”.
